This is an account of results in patent EP4782453A1 (Beyang Therapeutics Co., Ltd., priority 2023, dated 2025).

As usually defined, the IC50 is the concentration that inhibits the measured activity by half. Usually EC50 stands for the midpoint of the concentration-response curve.

Where two headings read alike, the source gives them in different places.

For one test, the target named is T1, Menin-MLL (Homo sapiens, UniProt O00255).
T1 construct: His-Menin (M1-L615 end); purchased BIORTUS BP9210
T1 sequence (O00255 1-615 isoform O00255-1): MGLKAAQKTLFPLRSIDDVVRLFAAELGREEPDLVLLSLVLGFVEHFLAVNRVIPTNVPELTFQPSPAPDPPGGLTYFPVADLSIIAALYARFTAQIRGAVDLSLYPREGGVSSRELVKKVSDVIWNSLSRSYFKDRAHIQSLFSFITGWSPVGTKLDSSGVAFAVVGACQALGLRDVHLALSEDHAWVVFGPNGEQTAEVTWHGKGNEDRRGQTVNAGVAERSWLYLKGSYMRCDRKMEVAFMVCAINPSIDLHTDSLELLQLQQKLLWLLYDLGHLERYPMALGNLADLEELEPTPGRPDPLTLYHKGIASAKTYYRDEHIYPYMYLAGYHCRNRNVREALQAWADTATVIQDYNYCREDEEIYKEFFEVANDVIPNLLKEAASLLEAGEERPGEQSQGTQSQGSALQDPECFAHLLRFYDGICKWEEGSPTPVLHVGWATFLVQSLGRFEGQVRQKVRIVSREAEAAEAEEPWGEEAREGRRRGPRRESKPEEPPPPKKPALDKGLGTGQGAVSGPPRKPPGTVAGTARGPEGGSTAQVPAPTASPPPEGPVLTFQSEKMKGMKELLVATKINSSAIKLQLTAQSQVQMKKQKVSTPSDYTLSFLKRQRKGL
Kind of test: Inhibitory activity against Menin-MLL binding (fluorescence polarization). To be noted: 150 nM His-Menin, 15 nM FITC-MLL, 25°C for 60 min. The gist of the method: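 Fluorescence polarization competition: compound and 150 nM His-tagged menin (residues M1-L615) sit 15 min at 25 °C in pH 7.5 HEPES buffer with NaCl, DTT and BSA; 15 nM FITC-labelled MLL peptide then binds for 60 min. IC50 fitted sigmoidally from mP values, duplicate wells.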

For test [1], the system named is MEIS1 gene expression. Kind of test: Inhibition of MEIS1 gene expression in human tumor cells (qRT-PCR), MV-4-11. The class given is cell-based. The following applies: MV4-11, MV-4-11 (carrying MLL-AF4), 48 hours of incubation, relative MEIS1 gene expression vs GAPDH, read-out: MV-4-11 MEISI EC50. From the text:
(§1) Experimental Example 3: Evaluation of Inhibitory Activity of Compounds Against MEISI Gene Expression in Human Tumor Cells
(§2) The effect of test samples on MEIS1 gene expression in vitro cultured human leukemia cells MV-4-11 (carrying MLL-AF4), MOLM-13 (carrying MLL-AF9), and OCI-AML3 (carrying NPM1c) was studied.
(§3) • Human acute lymphoblastic leukemia cells MV-4-11, purchased from American Type Culture Collection, Catalog Number: CRL-9591; • Human acute myeloid leukemia cells MOLM-13, purchased from COBIOER BIOSCIENCES CO., LTD, Catalog Number: CBP60678; • Human acute myeloid leukemia cells OCI-AML3, purchased from COBIOER BIOSCIENCES CO., LTD, Catalog Number: CBP60817; • MEIS1 Primer/Probe, purchased from IDT, Catalog Number: 40831613; and • GAPDH Primer/Probe, purchased from IDT, Catalog Number: 22214836.
(§4) MV-4-11 cells were cultured in an IMDM medium containing 10% fetal bovine serum, or MOLM-13 and OCI-AML3 cells were cultured in an RPMI-1640 medium containing 20% fetal bovine serum, each supplemented with 100 U·mL^-1 penicillin and 100 µg·mL^-1 streptomycin. These cells were cultured at 37°C with 5% CO2. The suspensions of individual cell lines were prepared in their respective media and seeded into 48-well plates at a density of 100,000 cells/well. On the day of the experiment, a compound stock solution was diluted in a 6-fold gradient using DMSO. Each gradient-diluted stock solution was then further diluted 250-fold with a complete medium to prepare a series of working solutions at different concentrations. Next, 250 µL of working solution (containing the complete medium with a 2-fold serial concentration of the test compound or a positive control compound, or containing a control complete medium) was added to each well. After 48 hours of incubation, cells from the 48-well plate were collected into 1 mL centrifuge tubes, centrifuged at 1000 rpm for 5 minutes, and the complete medium was removed. Cells were washed twice with 1 mL PBS and centrifuged to remove PBS. Total RNA was extracted using the RNeasy Mini Kit (250) (QIAGEN, 74106). The threshold cycle (Ct) value for gene expression was determined using the HiScript II U+ One Step qRT-PCR Probe Kit (Vazyme) (Vazyme, Q223-01), with 3 replicates per sample. The prepared reaction mixture was placed in an ABI 7500 real-time PCR instrument, and the reaction proceeded following the procedures below. [formula]
(§5) Next, for the relative MEIS1 gene expression, the concentration (EC50) that inhibits 50% of relative MEIS1 gene expression was calculated using GraphPad Prism 8 software.
A general note: Real-time PCR tracks product formation cycle by cycle.

Test [2] has as its system MEIS1 gene expression. Briefly: Inhibition of MEIS1 gene expression in human tumor cells (qRT-PCR), MOLM-13. In kind it is cell-based. To be noted: MOLM-13 (carrying MLL-AF9), 48 hours of incubation, relative MEIS1 gene expression vs GAPDH.
Source text: as §1, §2, §3, §4, §5

Test [3] has as its system MV-4-11 (carrying MLL-AF4). Briefly: Inhibition of proliferation of human tumor cells (Alamar Blue, 7 days), MV-4-11. In kind it is cell-based. The following applies: Homo sapiens, MV4-11, 168 h, MV-4-11 cells (carrying MLL-AF4), method calls the value GI50. The gist of the method: (§6)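 GI50 values reflect growth inhibition over 7 days, read by Alamar Blue. Seeding density was 4,000 cells/well except KG-1a (3,000 cells/well); each line grew in its own FBS-containing medium at 37°C.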
Background: Resazurin is reduced to fluorescent resorufin, in cell work by metabolically active cells.

For test [4], the system named is MOLM-13 (carrying MLL-AF9). Kind of test: Inhibition of proliferation of human tumor cells (Alamar Blue, 7 days), MOLM-13. In kind it is cell-based. To be noted: Homo sapiens, 168 h, MOLM-13 cells (carrying MLL-AF9), method calls the value GI50. In outline:
as §6

Setting [5] is: fluorescence polarization, read-out: Menin-MLL IC50.

As to `Cc1nc(F)c2c(-c3ccc(F)cc3C(=O)N3CCOC[C@H]3C)cc(C3CN([C@H](CCCN4CCN(C(=O)C5CC5)CC4)C(C)C)C3)cn12` [Example 341], the IC50 on Menin-MLL (setting [5]) came to 10 nM. The EC50 in the test on MEIS1 gene expression [1] was determined as 26 nM; with MEIS1 gene expression [2] it was 6 nM.

At Menin-MLL (Menin-MLL IC50, fluorescence polarization), `Cc1ncc2c(-c3ccc(F)cc3C(=O)N3CCOC[C@H]3C)cc(C3CN([C@H](CCCN4CCN(C5CC5)CC4)C(C)C)C3)cn12` [Example 325] had an IC50 of 3.2 nM. Moreover, the EC50 in the test on MEIS1 gene expression [1] came out at 7.6 nM; in the test with MEIS1 gene expression [2], 4.2 nM.

As for `CC(=O)N1CCN(CCC[C@H](C(C)C)N2CC(c3cc(-c4ccc(F)cc4C(=O)N4CCOC[C@H]4C)c4c(F)nc(C)n4c3)C2)C(C)(C)C1` [Example 336], the IC50 at Menin-MLL (setting [5]) stood at 9 nM. Further, the EC50 was 19 nM in the test on MEIS1 gene expression [1] and 9.3 nM in the test with MEIS1 gene expression [2].

Regarding `Cc1nc(F)c2c(-c3ccc(F)cc3C(=O)N3CCOC[C@H]3C)cc(C3CN([C@H](CCCN4CCN(C(=O)C(C)C)CC4)C(C)C)C3)cn12` [Example 338], the IC50 on Menin-MLL (setting [5]) was 9 nM. For the same molecule, the EC50 is 27 nM in the test with MEIS1 gene expression [1] and 1.8 nM in the test with MEIS1 gene expression [2].

For the molecule `CCN(C(=O)c1cc(F)ccc1-c1cc(C2CN([C@H](CCCN3CCC[C@@H](O)C3)C(C)C)C2)cn2c(C)ncc12)C(C)C` [Example 326], at Menin-MLL (setting [5]), the IC50 was determined as 2 nM. The EC50 in the test on MEIS1 gene expression [1] is 4.6 nM; in the test with MEIS1 gene expression [2], 5.5 nM.

`CC(=O)N1CCN(CCC[C@H](C(C)C)N2CC(c3cc(-c4ccc(F)cc4C(=O)N4CCOC[C@H]4C)c4c(F)nc(C)n4c3)C2)C[C@@H]1C` [Example 331]: on Menin-MLL (setting [5]), the IC50 was 14 nM. Further, the results for the EC50 in the test with MEIS1 gene expression [1] and with MEIS1 gene expression [2] were 63 nM and 20.3 nM, respectively.

In the case of `Cc1nc(F)c2c(-c3ccc(F)cc3C(=O)N3CCC[C@H]3C)cc(C3CN(C(C)C4CCOCC4)C3)cn12` (stereo partly drawn) [Example 188], the IC50 on Menin-MLL (setting [5]) stood at 12 nM; in test [3] it was 9.1 nM; in test [4], 27 nM. Further, in the test with MEIS1 gene expression [1], the EC50 is 42 nM.

As to `CC(=O)N1CCN(CCC[C@H](C(C)C)N2CC(c3cc(-c4ccc(F)cc4C(=O)N4CCOC[C@H]4C)c4c(F)nc(C)n4c3)C2)[C@@H](C)C1` [Example 329], the half-inhibitory concentration (IC50) on Menin-MLL (setting [5]) was determined as 11 nM. In addition, the values for the EC50 in the test with MEIS1 gene expression [1] and with MEIS1 gene expression [2] were 63 nM and 17.9 nM, respectively.

Turning to `CC(=O)N1CCC(CN2CC(c3cc(-c4ccc(F)cc4C(=O)N4CCC[C@H]4C)c4c(F)nc(C)n4c3)C2)CC1` [Example 189], the figures for the IC50 (on Menin-MLL (setting [5]); in test [3]; in test [4]) were 33 nM, 29 nM and 44 nM, respectively. The EC50 with MEIS1 gene expression [1] came out at 89 nM.

`CC(=O)N1CC2CC(C1)N2CCC[C@H](C(C)C)N1CC(c2cc(-c3ccc(F)cc3C(=O)N3CCOC[C@H]3C)c3c(F)nc(C)n3c2)C1` [Example 346]: the IC50 at Menin-MLL (setting [5]) was found to be 3.8 nM; in test [4], 8.3 nM. Besides, the EC50 in the test with MEIS1 gene expression [1] worked out at 10 nM; in the test on MEIS1 gene expression [2] it was 5 nM.
